# “Also recorded” adds a separate entry of the source.
# Key:
# Type in all cases: physicochemical
# [1] = Kinetic solubility of amorphous Compound I; details: kinetic from dmso stock; stated in embodiment text only
# [2] = Static stability of amorphous Compound I (ambient conditions; 40° C./75% RH)
# Protocol: Full characterization was carried out on a 100 mg scale test batch (lyophilised from 100% t-butanol).
# [3] = Solubility screen with crystalline material (Form I)
# Protocol: An extensive range of experiments were carried out using either Compound I crystalline Form I or amorphous Compound I as the input material. A set of 32 solvents with diverse properties (including 3 solvent:water mixtures 95:5 v:v) were selected. All solvents were used for the solubility screen but for the subsequent screens a selection of these solvents were used depending on the solubility.
# Compound I Form I was weighed into 2 mL vials and treated with increasing amounts of solvent. Solvent was added in 10 or 20 volume portions until the solid dissolved or a maximum volume of 2 mL (80 volumes) had been reached. After each addition of solvent the samples were warmed to 50° C. […] After 3 days of maturation samples were equilibrated to room temperature and small amounts of each sample were filtered through glass frits under vacuum and were analyzed by XRPD. […]
# Solutions were stirred at 50° C. for 1 hour then were cooled to 5° C. using a linear cooling rate of 0.1° C./min. […] Observations were made and any solids were analyzed by XRPD as above and solutions were cooled in the freezer for 3 days. Solids were then analyzed by XRPD and samples that remained solutions were left to evaporate slowly through loosened lids at ambient conditions. When solids were produced they were analyzed by XRPD.
Compound,solubility kinetic [1] [mg/mL],Static Stability at 40° C./75% RH: time to deliquesce to an oil/gum ([2]; 40° C./75% RH),"Static Stability at 40° C./75% RH: solid form ([2]; 40° C./75% RH, 1, 15 and 44 days)","Static Stability at ambient conditions ([2]; solid form on storage, lyophilised batch)",solubility in most primary alcohols [3]
CC(C)OC(=O)[C@@H](C)N[P@@](=O)(OC[C@H]1O[C@@H](n2ccc(=O)[nH]c2=O)[C@](C)(Cl)[C@@H]1O)Oc1ccccc1 [Amorphous Compound I],~2,"Deliquesces to an oil/gum in <1 hour,","remains amorphous after 1 day,; also recorded: after 15 days amorphous but hint of a peak at 6.5 °20; also recorded: after 44 days remains amorphous except for peak at 6.5 °20",Remains amorphous after 22 days,–
CC(C)OC(=O)[C@@H](C)N[P@@](=O)(OC[C@H]1O[C@@H](n2ccc(=O)[nH]c2=O)[C@](C)(Cl)[C@@H]1O)Oc1ccccc1 [Compound I crystalline Form I],–,–,–,–,highly soluble

# — US20170066795A1, “SOLID PRODRUG FORMS OF 2'-CHLORO-2'-METHYL URIDINE FOR HCV” (IDENIX PHARMACEUTICALS LLC, priority 2014, published 2017)
